Experimental data taken from ChEMBL document CHEMBL1201862, “PubChem BioAssay data set” (2004).
Active and inactive are the calls of the source. Rule as the data show it, for most assays here: actives have a measured EC50 and inactives only a lower limit.

Assays:
INS1 = assay: INS-1E survival protection against cytokine death – cell-based, luminescence, retest, dose response (AID 449756); type: functional; conditions: Rattus norvegicus;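 also: cell death triggered by IL-1 beta plus TNF-alpha plus IFN-gamma mixture; protective hits raise ATP signal compared with cytokine alone wells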
[1] = NIH3T3 cell viability loss – ATP luminescence, mouse fibroblasts, counter-screen, dose response (AID 2010); type: functional, cell-based;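 also: cells exposed to compound for about 90 hours before reading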
[2] = fluconazole-exposed Candida albicans growth modulators – fluorescence, retest, confirmation (AID 2467); type: functional, cell-based
[3] = Trypanosoma cruzi growth suppression in host cells – NIH3T3 host cells, beta-gal luminescence, confirmation (AID 2044); type: functional, cell-based;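 also: intracellular parasites grown in NIH/3T3 mouse fibroblasts as host cells; luminescent beta-galactosidase reporter signal from transgenic T. cruzi replicating inside host cells; inhibitors lower the luminescence signal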
[4] = NIH-3T3 fibroblast cytotoxicity, dose response, cytotoxicity control, cell-based, fluorescence, Alamar Blue, secondary assay (AID 2327); type: functional;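 also: NIH-3T3 mouse fibroblasts cultured with fluconazole at 8 µg/mL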
Streptokinase A = biological target: T1, Streptokinase A (Streptococcus pyogenes serotype M1, UniProt P10520); assay: viability-normalized secreted streptokinase activity reduction – plasminogen activation absorbance, OD405, dose response (AID 1914); type: functional, Streptococcus pyogenes M1 GAS;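 also: secreted streptokinase activity via plasminogen activation per viability signal from cell pellet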
T1 sequence (P10520 whole entry): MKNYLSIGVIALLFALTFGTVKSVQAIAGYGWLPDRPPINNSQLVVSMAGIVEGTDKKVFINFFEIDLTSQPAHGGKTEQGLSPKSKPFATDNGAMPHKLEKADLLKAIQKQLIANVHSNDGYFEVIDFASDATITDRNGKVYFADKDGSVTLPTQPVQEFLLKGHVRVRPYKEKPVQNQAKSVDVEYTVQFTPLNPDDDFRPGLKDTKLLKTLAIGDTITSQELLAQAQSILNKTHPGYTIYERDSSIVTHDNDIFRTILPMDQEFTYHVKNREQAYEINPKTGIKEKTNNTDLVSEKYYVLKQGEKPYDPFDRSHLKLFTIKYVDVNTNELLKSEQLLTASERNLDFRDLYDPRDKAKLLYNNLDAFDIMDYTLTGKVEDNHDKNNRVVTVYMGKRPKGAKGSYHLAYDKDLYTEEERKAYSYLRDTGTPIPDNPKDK

[5] = biological target: Serine/threonine-protein phosphatase (Candida dubliniensis (strain CD36 / CBS 7987 / NCPF 3949 / NRRLY-17841) (Yeast), UniProt B9W6M3); assay: blockers of CaCl2-induced CDRE-lacZ signaling – S. cerevisiae, luminescence, secondary, dose response (AID 2388); type: functional, cell-based;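 also: yeast reporter cells carrying a calcineurin-responsive lacZ construct stimulated with calcium chloride; luminescent beta-galactosidase reporter signal in whole cells rather than isolated phosphatase activity; potency for inhibition where a drop in reporter signal means calcineurin blockade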
Sequence of Serine/threonine-protein phosphatase (B9W6M3 whole entry): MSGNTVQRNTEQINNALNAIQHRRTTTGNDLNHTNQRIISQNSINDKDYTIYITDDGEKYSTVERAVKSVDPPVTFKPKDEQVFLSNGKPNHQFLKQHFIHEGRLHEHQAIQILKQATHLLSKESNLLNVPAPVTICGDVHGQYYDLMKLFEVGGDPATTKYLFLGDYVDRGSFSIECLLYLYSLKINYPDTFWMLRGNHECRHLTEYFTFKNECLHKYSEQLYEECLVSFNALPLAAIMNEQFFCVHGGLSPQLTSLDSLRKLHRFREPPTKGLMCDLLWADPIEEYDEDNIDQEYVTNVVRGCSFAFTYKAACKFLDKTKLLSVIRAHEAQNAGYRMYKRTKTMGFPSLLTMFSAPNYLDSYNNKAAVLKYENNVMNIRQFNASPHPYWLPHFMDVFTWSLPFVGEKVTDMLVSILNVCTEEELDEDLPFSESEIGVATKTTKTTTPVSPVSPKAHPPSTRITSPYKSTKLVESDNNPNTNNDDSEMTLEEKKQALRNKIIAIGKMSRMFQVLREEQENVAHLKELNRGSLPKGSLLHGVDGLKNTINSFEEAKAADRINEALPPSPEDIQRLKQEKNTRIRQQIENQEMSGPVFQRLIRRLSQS

Streptococcus = assay: GAS UMAA2166 growth inhibition – luminescence, BacTiterGlo, counter-screen for streptokinase expression inhibitor project, dose response (AID 1915); type: functional, organism-based;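 also: potency for reduction of bacterial viability or growth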
[6] = system: Streptococcus sp. 'group A'; assay: Streptococcus pyogenes SK(-)GAS viability under kanamycin – luminescence, BacTiterGlo, confirmation, counter-screen for streptokinase expression inhibitor project, dose response (AID 1900); type: functional, organism-based
[7] = biological target: ATP-dependent molecular chaperone HSP82 (Candida albicans (strain WO-1) (Yeast), UniProt C4YTQ8); assay: steroid-induced GRE reporter decrease in yeast – S. cerevisiae, luminescence, Hsp90 inhibitor project, dose response (AID 2400); type: functional, cell-based;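 also: beta-galactosidase luminescence from glucocorticoid response element reporter as proxy for Hsp90 function; inhibitor potency where signal loss means Hsp90 inhibition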
Sequence of ATP-dependent molecular chaperone HSP82 (C4YTQ8 whole entry): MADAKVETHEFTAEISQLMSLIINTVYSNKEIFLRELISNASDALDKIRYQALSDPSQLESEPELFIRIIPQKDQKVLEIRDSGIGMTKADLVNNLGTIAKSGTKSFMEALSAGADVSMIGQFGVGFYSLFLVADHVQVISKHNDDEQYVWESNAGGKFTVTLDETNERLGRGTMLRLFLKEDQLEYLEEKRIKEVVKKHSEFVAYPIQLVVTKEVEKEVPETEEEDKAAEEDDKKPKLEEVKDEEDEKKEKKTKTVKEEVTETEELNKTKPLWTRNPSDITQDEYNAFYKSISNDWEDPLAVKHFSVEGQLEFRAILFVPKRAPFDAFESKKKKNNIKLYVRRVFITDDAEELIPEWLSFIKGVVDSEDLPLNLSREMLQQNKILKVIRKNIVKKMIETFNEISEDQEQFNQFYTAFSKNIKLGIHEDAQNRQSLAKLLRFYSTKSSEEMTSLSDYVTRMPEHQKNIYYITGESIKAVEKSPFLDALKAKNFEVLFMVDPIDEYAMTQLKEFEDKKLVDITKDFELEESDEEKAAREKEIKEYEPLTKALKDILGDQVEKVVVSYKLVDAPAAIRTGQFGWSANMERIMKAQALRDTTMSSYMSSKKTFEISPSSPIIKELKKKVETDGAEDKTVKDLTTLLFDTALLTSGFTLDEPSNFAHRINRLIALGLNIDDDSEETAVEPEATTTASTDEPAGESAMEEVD

[8] = biological target: Apoptotic protease-activating factor 1 (Homo sapiens, UniProt O14727); type: functional
Sequence of Apoptotic protease-activating factor 1 (O14727 whole entry): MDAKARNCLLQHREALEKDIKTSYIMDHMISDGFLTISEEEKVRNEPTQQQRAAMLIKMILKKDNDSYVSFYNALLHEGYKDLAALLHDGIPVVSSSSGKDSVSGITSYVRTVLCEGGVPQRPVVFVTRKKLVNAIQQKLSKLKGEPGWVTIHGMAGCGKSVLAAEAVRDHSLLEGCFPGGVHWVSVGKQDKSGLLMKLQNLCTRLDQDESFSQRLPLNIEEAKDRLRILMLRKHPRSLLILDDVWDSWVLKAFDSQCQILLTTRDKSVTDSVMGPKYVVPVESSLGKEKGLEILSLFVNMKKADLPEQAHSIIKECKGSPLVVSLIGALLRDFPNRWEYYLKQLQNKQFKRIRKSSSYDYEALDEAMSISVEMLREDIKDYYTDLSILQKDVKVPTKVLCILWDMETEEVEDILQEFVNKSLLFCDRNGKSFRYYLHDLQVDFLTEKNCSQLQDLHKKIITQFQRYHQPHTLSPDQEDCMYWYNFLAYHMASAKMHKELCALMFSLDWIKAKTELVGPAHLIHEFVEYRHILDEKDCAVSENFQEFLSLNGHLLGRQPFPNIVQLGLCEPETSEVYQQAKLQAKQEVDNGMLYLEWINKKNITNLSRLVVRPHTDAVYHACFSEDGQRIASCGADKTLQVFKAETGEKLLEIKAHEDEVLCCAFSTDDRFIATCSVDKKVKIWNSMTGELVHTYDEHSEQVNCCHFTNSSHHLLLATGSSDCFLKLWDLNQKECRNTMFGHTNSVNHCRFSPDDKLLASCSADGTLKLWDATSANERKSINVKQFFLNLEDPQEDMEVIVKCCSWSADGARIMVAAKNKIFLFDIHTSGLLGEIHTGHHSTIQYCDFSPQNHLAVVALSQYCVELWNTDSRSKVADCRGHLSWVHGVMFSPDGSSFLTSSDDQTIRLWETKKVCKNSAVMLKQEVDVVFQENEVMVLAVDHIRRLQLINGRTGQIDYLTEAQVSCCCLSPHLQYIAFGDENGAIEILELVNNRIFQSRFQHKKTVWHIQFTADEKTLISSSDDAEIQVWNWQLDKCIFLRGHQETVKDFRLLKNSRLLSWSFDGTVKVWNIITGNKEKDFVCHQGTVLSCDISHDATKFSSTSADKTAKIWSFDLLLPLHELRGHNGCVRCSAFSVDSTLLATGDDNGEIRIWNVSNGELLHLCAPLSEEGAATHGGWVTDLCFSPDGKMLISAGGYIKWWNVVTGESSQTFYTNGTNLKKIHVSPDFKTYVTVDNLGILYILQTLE

Cytochrome P450 1A2 = biological target: T2, Cytochrome P450 1A2 (Homo sapiens, UniProt P05177);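 also: PubChem cytochrome P450 panel assay, CYP1A2 panel member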
T2 sequence (P05177 whole entry): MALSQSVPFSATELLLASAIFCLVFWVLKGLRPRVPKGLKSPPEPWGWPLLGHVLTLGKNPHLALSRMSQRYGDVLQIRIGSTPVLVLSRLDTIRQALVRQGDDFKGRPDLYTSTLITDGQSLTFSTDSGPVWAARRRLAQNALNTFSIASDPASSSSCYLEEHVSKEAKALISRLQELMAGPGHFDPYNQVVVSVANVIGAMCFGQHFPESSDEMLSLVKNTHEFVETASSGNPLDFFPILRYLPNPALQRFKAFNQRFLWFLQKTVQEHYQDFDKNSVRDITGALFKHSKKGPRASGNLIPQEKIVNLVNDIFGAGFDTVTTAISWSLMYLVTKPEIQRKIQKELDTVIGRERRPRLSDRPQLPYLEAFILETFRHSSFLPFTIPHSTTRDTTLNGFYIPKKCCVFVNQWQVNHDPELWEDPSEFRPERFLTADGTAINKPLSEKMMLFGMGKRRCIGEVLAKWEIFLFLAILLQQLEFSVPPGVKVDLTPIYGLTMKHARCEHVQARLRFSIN

Beta-galactosidase = Beta-galactosidase (Escherichia coli, UniProt Q8VNN2); assay: PubChem AID 485352; type: functional
Sequence of Beta-galactosidase (Q8VNN2 whole entry): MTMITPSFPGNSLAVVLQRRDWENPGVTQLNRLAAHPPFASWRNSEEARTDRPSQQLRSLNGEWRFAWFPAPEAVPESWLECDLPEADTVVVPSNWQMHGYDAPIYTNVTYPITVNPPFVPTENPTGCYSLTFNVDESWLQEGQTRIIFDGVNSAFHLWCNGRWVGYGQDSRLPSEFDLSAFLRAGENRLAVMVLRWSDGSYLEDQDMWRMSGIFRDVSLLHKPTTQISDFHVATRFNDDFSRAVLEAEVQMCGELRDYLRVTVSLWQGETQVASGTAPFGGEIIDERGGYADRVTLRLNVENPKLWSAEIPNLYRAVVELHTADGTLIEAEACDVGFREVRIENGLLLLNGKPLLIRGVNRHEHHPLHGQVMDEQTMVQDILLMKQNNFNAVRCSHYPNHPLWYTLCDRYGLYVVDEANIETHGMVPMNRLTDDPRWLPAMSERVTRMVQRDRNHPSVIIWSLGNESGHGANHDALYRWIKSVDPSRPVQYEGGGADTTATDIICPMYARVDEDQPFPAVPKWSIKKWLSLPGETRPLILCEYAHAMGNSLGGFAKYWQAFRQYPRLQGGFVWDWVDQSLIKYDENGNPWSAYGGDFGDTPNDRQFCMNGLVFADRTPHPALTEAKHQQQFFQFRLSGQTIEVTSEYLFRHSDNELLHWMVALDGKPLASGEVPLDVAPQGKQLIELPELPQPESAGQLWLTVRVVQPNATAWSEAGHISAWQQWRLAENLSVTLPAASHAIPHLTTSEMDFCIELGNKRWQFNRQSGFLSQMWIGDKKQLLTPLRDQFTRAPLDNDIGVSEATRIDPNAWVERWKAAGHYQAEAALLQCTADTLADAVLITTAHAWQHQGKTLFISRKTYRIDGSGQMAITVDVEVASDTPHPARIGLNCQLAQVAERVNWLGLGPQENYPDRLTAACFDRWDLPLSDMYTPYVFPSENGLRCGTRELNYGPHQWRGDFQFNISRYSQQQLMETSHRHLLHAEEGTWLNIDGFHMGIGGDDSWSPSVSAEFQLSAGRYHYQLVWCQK

[9] = biological target: T3, Type-1 angiotensin II receptor (Homo sapiens, UniProt P30556); assay: antagonism of angiotensin II type 1 receptor – cell-based, uHTS hits, selectivity assay for APJ receptor antagonist project, dose response (AID 463214); type: functional;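 also: antagonist potency against angiotensin II stimulated AT1 response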
T3 sequence (P30556 whole entry): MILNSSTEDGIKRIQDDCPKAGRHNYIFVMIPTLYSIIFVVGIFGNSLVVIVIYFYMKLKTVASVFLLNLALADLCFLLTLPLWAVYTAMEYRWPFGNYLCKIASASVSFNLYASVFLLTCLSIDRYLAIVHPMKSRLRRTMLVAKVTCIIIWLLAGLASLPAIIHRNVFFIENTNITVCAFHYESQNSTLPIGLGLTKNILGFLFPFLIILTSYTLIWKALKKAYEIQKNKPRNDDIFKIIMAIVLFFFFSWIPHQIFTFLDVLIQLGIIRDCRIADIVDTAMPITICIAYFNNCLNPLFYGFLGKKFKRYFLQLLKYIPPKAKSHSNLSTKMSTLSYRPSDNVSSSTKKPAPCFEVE

HEK293 = assay: cells; type: functional, cell-based; conditions: Homo sapiens
[10] = biological target: T4, Nuclear receptor subfamily 0 group B member 1 (Homo sapiens, UniProt P51843); assay: Luminescence-based cell-based high throughput dose response assay for inhibitors of the orphan nuclear receptor subfamily 0, group B, member 1 (DAX1; NR0B1). [Related pubchem assays (depositor defined):AID504766, AID504790]; type: functional
T4 sequence (P51843 whole entry): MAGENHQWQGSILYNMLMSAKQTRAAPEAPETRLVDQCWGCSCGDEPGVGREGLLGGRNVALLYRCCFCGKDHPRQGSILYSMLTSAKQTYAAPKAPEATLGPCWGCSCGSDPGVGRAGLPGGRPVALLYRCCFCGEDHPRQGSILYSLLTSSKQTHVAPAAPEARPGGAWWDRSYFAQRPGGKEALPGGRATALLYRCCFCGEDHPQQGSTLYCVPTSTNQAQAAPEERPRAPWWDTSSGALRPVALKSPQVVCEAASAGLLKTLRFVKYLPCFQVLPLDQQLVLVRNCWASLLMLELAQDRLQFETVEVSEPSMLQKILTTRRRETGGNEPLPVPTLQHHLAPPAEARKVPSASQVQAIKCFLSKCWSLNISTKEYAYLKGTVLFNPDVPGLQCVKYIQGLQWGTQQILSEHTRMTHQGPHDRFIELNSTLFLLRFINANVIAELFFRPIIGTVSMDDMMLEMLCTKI

[11] = biological target: Oxysterols receptor LXR-beta (Homo sapiens, UniProt P55055); type: functional, cell-based;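 also: Cell-based luminescence dose-response assay of agonist activity at LXR, run as a confirmatory counterscreen to a daf-12 agonist screen; HEK293 cells with Gal4-LXR fusion and GAL4-driven luciferase reporter; agonist potency from rising luciferase signal of a Gal4-LXR reporter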
Sequence of Oxysterols receptor LXR-beta (P55055 whole entry, the tested form may be a part): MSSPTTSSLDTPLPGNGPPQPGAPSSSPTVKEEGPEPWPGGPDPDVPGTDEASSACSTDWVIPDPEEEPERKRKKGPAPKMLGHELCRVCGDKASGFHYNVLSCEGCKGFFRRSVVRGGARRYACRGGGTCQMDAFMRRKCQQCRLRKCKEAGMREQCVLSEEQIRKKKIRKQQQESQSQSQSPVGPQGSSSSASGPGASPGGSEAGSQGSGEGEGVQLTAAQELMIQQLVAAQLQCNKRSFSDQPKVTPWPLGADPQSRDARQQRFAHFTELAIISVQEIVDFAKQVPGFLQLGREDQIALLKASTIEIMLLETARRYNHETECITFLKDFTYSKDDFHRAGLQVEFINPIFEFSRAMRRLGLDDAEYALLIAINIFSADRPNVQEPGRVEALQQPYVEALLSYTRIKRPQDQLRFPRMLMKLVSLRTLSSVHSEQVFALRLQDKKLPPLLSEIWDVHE

CHO = CHO cell viability loss, potency – luminescence, cytotoxicity control for TLR9-MyD88 binding inhibitor project, dose response (AID 588339); type: functional, cell-based, hamster; conditions: Cricetulus griseus;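 also: CHO cells stably coexpressing TLR9 and MyD88 fusions from primary screen; compound exposure lasted 48 hours before viability readout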
[12] = biological target: T5, Corticotropin-releasing factor receptor 2/Corticotropin-releasing factor-binding protein (Homo sapiens, UniProt P24387+Q13324); assay: activators of CRF receptor 2 with binding protein – uHTS hits, confirmation (AID 602473); type: functional; conditions: read-out: EC50_Mean
T5 sequence (Q13324 whole entry): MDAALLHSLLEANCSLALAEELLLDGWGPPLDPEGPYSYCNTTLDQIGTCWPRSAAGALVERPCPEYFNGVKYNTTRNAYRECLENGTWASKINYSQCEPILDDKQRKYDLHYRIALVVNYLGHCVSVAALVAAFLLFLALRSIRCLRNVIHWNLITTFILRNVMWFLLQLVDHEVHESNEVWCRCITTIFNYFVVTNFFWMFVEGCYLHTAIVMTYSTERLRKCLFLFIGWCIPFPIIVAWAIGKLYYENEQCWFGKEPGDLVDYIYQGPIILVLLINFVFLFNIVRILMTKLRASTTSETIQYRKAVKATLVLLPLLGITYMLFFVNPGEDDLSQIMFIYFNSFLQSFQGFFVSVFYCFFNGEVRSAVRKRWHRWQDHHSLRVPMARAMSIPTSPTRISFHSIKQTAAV
T5 sequence (P24387 whole entry): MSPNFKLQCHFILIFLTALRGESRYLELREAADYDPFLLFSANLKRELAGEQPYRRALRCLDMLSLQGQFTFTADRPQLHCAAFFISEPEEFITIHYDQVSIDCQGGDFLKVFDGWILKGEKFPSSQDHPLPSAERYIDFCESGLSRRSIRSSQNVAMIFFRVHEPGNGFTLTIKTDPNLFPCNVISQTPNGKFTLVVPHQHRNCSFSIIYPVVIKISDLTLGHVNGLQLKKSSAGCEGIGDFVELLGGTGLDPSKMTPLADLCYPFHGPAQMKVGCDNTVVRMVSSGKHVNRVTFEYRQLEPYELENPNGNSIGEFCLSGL

[13] = biological target: T6, RNA-binding protein pos-1 (Caenorhabditis elegans, UniProt G5EF15); assay: disruptors of C. elegans POS-1 RNA interaction – biochemical, fluorescence polarization, dose response (AID 1964);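 also: purified POS-1 fused to maltose binding protein made in E. coli; potency of compounds blocking POS-1 binding to fluorescent RNA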
T6 sequence (G5EF15 whole entry): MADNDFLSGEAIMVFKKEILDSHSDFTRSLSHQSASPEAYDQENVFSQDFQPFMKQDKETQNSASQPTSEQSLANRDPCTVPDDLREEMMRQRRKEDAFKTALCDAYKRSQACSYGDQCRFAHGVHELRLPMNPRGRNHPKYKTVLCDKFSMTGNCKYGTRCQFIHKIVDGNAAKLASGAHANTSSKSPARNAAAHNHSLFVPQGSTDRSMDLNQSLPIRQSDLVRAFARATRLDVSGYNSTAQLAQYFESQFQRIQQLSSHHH

Beta Lactamase = Beta Lactamase (Pseudomonas aeruginosa, UniProt Q932Y6); assay: BLA reporter interference, concentration series – BLA reporter cells, FRET fluorescence, artefact control for TLR9-MyD88 binding inhibitor project, dose response (AID 588341); type: cell-based;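 also: cell based assay in CHO-K1 cells stably expressing beta-lactamase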
Sequence of Beta Lactamase (Q932Y6 whole entry): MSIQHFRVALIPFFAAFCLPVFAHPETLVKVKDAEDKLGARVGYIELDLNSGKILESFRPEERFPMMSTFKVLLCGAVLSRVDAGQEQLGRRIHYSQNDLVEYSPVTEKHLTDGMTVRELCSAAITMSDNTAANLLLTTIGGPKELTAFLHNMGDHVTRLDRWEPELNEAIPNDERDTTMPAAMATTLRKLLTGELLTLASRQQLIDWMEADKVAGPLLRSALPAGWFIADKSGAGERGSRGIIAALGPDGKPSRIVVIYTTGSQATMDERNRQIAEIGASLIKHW

[14] = biological target: T7, Zinc finger protein mex-5 (Caenorhabditis elegans, UniProt Q9XUB2); assay: potency of MEX-5 RNA-binding blockers – biochemical, C. elegans, fluorescence polarization, dose response (AID 1960)
T7 sequence (Q9XUB2 whole entry): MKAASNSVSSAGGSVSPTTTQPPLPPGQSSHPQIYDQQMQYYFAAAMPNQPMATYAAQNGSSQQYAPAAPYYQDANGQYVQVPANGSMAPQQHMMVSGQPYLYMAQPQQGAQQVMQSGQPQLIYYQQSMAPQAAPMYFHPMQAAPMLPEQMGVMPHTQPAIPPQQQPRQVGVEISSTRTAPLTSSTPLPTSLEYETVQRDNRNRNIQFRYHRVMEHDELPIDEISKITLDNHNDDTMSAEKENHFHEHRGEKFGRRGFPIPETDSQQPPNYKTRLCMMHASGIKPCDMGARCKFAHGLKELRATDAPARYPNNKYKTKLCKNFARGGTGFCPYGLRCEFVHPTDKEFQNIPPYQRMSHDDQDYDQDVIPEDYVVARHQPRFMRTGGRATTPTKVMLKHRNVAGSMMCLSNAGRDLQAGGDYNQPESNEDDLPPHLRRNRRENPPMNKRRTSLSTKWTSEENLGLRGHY

Nc1nonc1-n1nnc(C(=O)N/N=C/c2cc(Br)ccc2O)c1CNc1ccccc1
AC50 (INS1): 2.52 µM (active)
EC50 [1]: 5.03 µM (active)
EC50 [2]: 0.178 µM (active)
EC50 [3]: 1.84 µM (active)
EC50 [4]: 43.8 µM (inconclusive)
EC50 (Streptokinase A): > 150 µM (not active)
EC50 [5]: > 180 µM (inactive)
EC50 (Streptococcus): 3.23 µM (active)
EC50 [6]: 0.392 µM (active)
EC50 [7]: 22.6 µM (active)

O=C(O)c1cccc(NC2=C(N3CCOCC3)C(=O)c3ccccc3C2=O)c1
IC50 [8]: 14.8 µM (active)

Cc1ccc(C(=O)COC(=O)CNC(=O)Cc2ccccc2)cc1[N+](=O)[O-]
AC50 (Cytochrome P450 1A2): 25.1 µM (inconclusive)
EC50 (Beta-galactosidase): > 40 µM (inactive)
IC50 [9]: > 40 µM (not active)

Cc1nc2c(ncn2-c2ccccc2)c(=O)n1NC(=O)CN1CCCC1
IC50 (HEK293): > 67.5 µM (inactive)
IC50 [10]: > 67.5 µM (inactive)

Oc1ccccc1-c1cc(-c2ccc(F)cc2)[nH]n1
IC50 (HEK293): > 67.5 µM (inactive)
EC50 (cells): > 67.6 µM (inactive)
IC50 [10]: > 67.5 µM (inactive)
EC50 [11]: > 67.6 µM (inactive)

COC(=O)c1ccc(NCC(=O)c2ccccc2)cc1
EC50 (Beta-galactosidase): > 40 µM (inactive)
IC50 [9]: 13.7 µM (active)

COc1ccc(C(=O)c2sc3nc(C)cc(-c4cccs4)c3c2N)cc1OC
IC50 (CHO): 50.2 µM (inactive)
EC50 [12]: 8.12 µM (active)
EC50 [13]: 21.2 µM (active)
IC50 (Beta Lactamase): 8.85 µM (active)
EC50 [14]: 22.6 µM (active)
